“Also recorded” adds a separate entry of the source.
How the values were obtained:
[1] = system: shoots regenerated from mature stem segments of sweet orange cv. Hamlin; assay: Grafting of regenerated adventitious shoots onto rough lemon rootstock: survival and growth; format: in vivo, Citrus sinensis
Text: Adventitious shoots (0.5 cm long) were excised from mature stem segments and grafted in vivo onto rough lemon seedlings. Briefly, rough lemon seedlings (approx. 25-30 cm in height) were decapitated (approx. 15 cm above ground) where the diameter of the stem equals the width of the shoot (2-3 mm). A 5 mm deep longitudinal cut is made into the cambium layer of the seedling into which the shoot is wedged and the grafted area sealed with Parafilm. The shoot is wounded, each side, by removing approx. 1 mm of the surface with a scalpel blade in the same plane as the exposed cambium layer to promote growth of the new shoot. The whole plant is covered with a clear plastic bag and maintained in the light (100 μm^−2s^−1 cool light fluorescent tubes) under a 16 h photoperiod at 22-24° C. After approx. 21 d, the grafted shoot starts to grow and the bag is gradually opened to aid acclimatization. The plant is then transferred to the greenhouse approx. 28 d later and allowed to grow to maturity.
Shoots (approx. 1 cm in length) were excised from explants and grafted onto a rough lemon rootstock to allow growth and development. […] This phenotype of growth and development is typical of a mature citrus tree as observed in previous studies on the tissue culture of mature internodal stem segments (Cervera et al., 1998, Transgenic Res 7: 51-59).

[2] = system: cotyledonary explants of Jute; settings: cited from earlier work
[3] = system: mature internodal stem segments of sweet orange cv. Hamlin; assay: Culture of explants on DBA3 medium with surfactant: fresh weight and shoot regeneration; format: cell-based, Citrus sinensis; settings: for % Organogenic explants / Total shoot yield: 60 explants/treatment
Procedure: Mature budwood collected from C. sinensis cv. Hamlin from virus-free greenhouse material were grafted onto seedlings of rough lemon (C. jambhiri Lush.) and maintained in a greenhouse (20-27° C.). The developing shoots were allowed to grow as one, two and three flushes, each used separately for experimental studies. Shoots (approx. 20 cm in length) were pruned from each plant and used for explant preparation. The stems were stripped of their thorns and leaves, surface-sterilized in 70% ethanol (1 min), disinfected for 20 min in 20% (v/v) domestic bleach solution containing 0.2% (v/v) Tween® 20 and washed five times with sterile distilled water. Internodal stem explants were cut transversely into 1 cm long segments and placed horizontally onto the culture media with the cut ends submerged (approx. 2 mm) into the medium. […] The non-ionic surfactants were dissolved in sterile-distilled water and then filter-sterilized before adding to the medium after autoclaving, along with filter-sterilized Gamborg B5 vitamins and de-proteinized coconut water. Cultures were maintained in the light (60 μm m^−2s^−1 cool light fluorescent tubes) under a 16 h photoperiod at 28±2° C. and subcultured at 21-28 d intervals. After 10 weeks, the weight of each explant and the number of adventitious shoots was recorded. This experiment was repeated for each of the first three flushes of shoots to compare growth and shoot regeneration efficiencies.

[4] = shoots from explants cultured at 0.001-0.1% (v/v), rough lemon rootstock
[5] = Flush 1, surfactant 0.001%, 10 weeks of culture
[6] = Flush 1, surfactant 0.01%, 10 weeks of culture
[7] = Flush 1, surfactant 0.1%, 10 weeks of culture
[8] = Flush 1, surfactant 0.5%, 10 weeks of culture
[9] = Flush 2, surfactant 0.001%, 10 weeks of culture
[10] = Flush 2, surfactant 0.01%, 10 weeks of culture
[11] = Flush 2, surfactant 0.1%, 10 weeks of culture
[12] = Flush 2, surfactant 0.5%, 10 weeks of culture
[13] = Flush 3, surfactant 0.001%, 10 weeks of culture
[14] = Flush 3, surfactant 0.01%, 10 weeks of culture
[15] = Flush 3, surfactant 0.1%, 10 weeks of culture
[16] = Flush 3, surfactant 0.5%, 10 weeks of culture

## polyethylene glycol p-(1,1,3,3-tetramethylbutyl)-phenyl ether [Triton® X-100]
[1]; [4]
  shoots survived / shoots grafted: 5/15
  survival rate of shoots following grafting: 33%
[2]; 0.001% (v/v)
  growth of explants: increased also the growth
[2]; 0.001%, after 14-21 days
  state of shoots after transfer to shoot elongation medium: became necrotic
[2]
  shoot regeneration of jute cotyledons: able to promote shoot regeneration
[2]; concentrations above 0.001% (v/v)
  growth and regeneration of explants: inhibited the growth and regeneration
[3]; 0.001% (v/v) in DBA3, first flush
  Mean fresh weight: 347±24 mg f. wt.
[3]; 0.001% (v/v) in DBA3, first two flushes
  number of shoots per explant and number of explants giving shoots compared to the control: lower compared to the control
[3]; 0.001% (v/v) in DBA3, second flush
  Mean fresh weight: 309±23 mg f. wt.
[3]; 0.1-0.5% (v/v) in DBA3
  fresh weight gain, number of shoots per explant and number giving shoots compared to DBA3 without surfactant: significantly (P<0.05) reduced
[3]; 0.5% (v/v) in DBA3
  shoot regeneration: failed to regenerate shoots
[3]; [5]
  Mean fresh weight: 347 ± 24 mg
  Mean number of shoots per explant: 0.13 ± 0.06
  % Organogenic explants: 10%
  Total shoot yield: 8
[3]; [6]
  Mean fresh weight: 254 ± 13 mg
  Mean number of shoots per explant: 0.18 ± 0.07
  % Organogenic explants: 13.5%
  Total shoot yield: 11
[3]; [7]
  Mean fresh weight: 153 ± 7 mg
  Mean number of shoots per explant: 0.08 ± 0.04
  % Organogenic explants: 6.5%
  Total shoot yield: 5
[3]; [8]
  Mean fresh weight: 75 ± 3 mg
  Mean number of shoots per explant: 0.00 ± 0.00
  % Organogenic explants: 0%
  Total shoot yield: 0
[3]; [9]
  Mean fresh weight: 309 ± 23 mg
  Mean number of shoots per explant: 0.07 ± 0.03
  % Organogenic explants: 6.5%
  Total shoot yield: 4
[3]; [10]
  Mean fresh weight: 264 ± 14 mg
  Mean number of shoots per explant: 0.10 ± 0.05
  % Organogenic explants: 6.5%
  Total shoot yield: 6
[3]; [11]
  Mean fresh weight: 158 ± 7 mg
  Mean number of shoots per explant: 0.05 ± 0.03
  % Organogenic explants: 5%
  Total shoot yield: 3
[3]; [12]
  Mean fresh weight: 85 ± 4 mg
  Mean number of shoots per explant: 0.00 ± 0.00
  % Organogenic explants: 0%
  Total shoot yield: 0
[3]; [13]
  Mean fresh weight: 135 ± 7 mg
  Mean number of shoots per explant: 0.08 ± 0.04
  % Organogenic explants: 6.5%
  Total shoot yield: 5
[3]; [14]
  Mean fresh weight: 126 ± 6 mg
  Mean number of shoots per explant: 0.02 ± 0.02
  % Organogenic explants: 1.5%
  Total shoot yield: 1
[3]; [15]
  Mean fresh weight: 89 ± 3 mg
  Mean number of shoots per explant: 0.00 ± 0.00
  % Organogenic explants: 0%
  Total shoot yield: 0
[3]; [16]
  Mean fresh weight: 61 ± 8 mg
  Mean number of shoots per explant: 0.00 ± 0.00
  % Organogenic explants: 0%
  Total shoot yield: 0

## polyoxyethylene (20) sorbitan monolaurate [Tween® 20]
[1]; shoots from explants cultured on DBA3 with surfactant (0.01-0.5% (v/v))
  growth of vitrified shoots following grafting: failed to graft successfully in vivo; also recorded: all failed to initiate growth following grafting
[2]; 0.001-0.01% (v/v)
  fresh weight gain: significantly increased
  number of regenerants: significantly increased
[2]; 0.5% (v/v)
  growth: inhibitory to growth
  shoot production: inhibited
[2]
  shoot regeneration of jute cotyledons: able to promote shoot regeneration
[3]; [5]
  Mean fresh weight: 273 ± 15 mg
  Mean number of shoots per explant: 0.23 ± 0.08
  % Organogenic explants: 15%
  Total shoot yield: 14
[3]; [6]
  Mean fresh weight: 218 ± 12 mg
  Mean number of shoots per explant: 0.25 ± 0.07
  % Organogenic explants: 18.5%
  Total shoot yield: 15
[3]; [7]
  Mean fresh weight: 269 ± 13 mg
  Mean number of shoots per explant: 0.31 ± 0.08
  % Organogenic explants: 23%
  Total shoot yield: 19
[3]; [8]
  Mean fresh weight: 253 ± 12 mg
  Mean number of shoots per explant: 0.18 ± 0.06
  % Organogenic explants: 15%
  Total shoot yield: 11
[3]; [9]
  Mean fresh weight: 240 ± 15 mg
  Mean number of shoots per explant: 0.22 ± 0.07
  % Organogenic explants: 15%
  Total shoot yield: 13
[3]; [10]
  Mean fresh weight: 260 ± 13 mg
  Mean number of shoots per explant: 0.20 ± 0.07
  % Organogenic explants: 13.5%
  Total shoot yield: 12
[3]; [11]
  Mean fresh weight: 302 ± 19 mg
  Mean number of shoots per explant: 0.22 ± 0.07
  % Organogenic explants: 17%
  Total shoot yield: 13
[3]; [12]
  Mean fresh weight: 250 ± 13 mg
  Mean number of shoots per explant: 0.17 ± 0.06
  % Organogenic explants: 13.5%
  Total shoot yield: 10
[3]; [13]
  Mean fresh weight: 193 ± 8 mg
  Mean number of shoots per explant: 0.07 ± 0.03
  % Organogenic explants: 7%
  Total shoot yield: 4
[3]; [14]
  Mean fresh weight: 161 ± 7 mg
  Mean number of shoots per explant: 0.05 ± 0.03
  % Organogenic explants: 5%
  Total shoot yield: 3
[3]; [15]
  Mean fresh weight: 155 ± 7 mg
  Mean number of shoots per explant: 0.08 ± 0.04
  % Organogenic explants: 8.5%
  Total shoot yield: 5
[3]; [16]
  Mean fresh weight: 130 ± 6 mg
  Mean number of shoots per explant: 0.05 ± 0.03
  % Organogenic explants: 5%
  Total shoot yield: 3
[3]; all three flushes of growth
  weight of explants compared to medium without surfactant: no significant difference

Reference: patent US20130071933A1, “CITRUS SHOOT REGENERATION COMPOSITIONS, METHODS, AND SYSTEMS” (priority 2011, published 2013)
